Data published in patent publication US10392368B2, “Pyrazolo and triazolo bicyclic compounds as JAK kinase inhibitors” (THERAVANCE BIOPHARMA R&D IP, LLC, priority 2017, dated 2019).
Read-outs that look alike come from different tables or passages of the source.

Experiments:
[1] = target: T1, JAK1 (Homo sapiens, UniProt P23458); experiment: Biochemical JAK1 kinase assay (LanthaScreen); details: for Ki: read-out: JAK 1 (pKi) (converted)
T1 construct: GST; purchased Life Technologies
Outline: (§1)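 TR-FRET read-out: terbium anti-pSTAT1 (pTyr701) antibody, 2 nM, with 10 mM EDTA quench, emission ratio 520/495 nm. GST-JAK phosphorylates GFP-STAT1 peptide for 1 h at ambient temperature after 1 h compound pre-incubation. pIC50 from dose-response converted to pKi by Cheng-Prusoff.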

[2] = target: T2, JAK2 (Homo sapiens, UniProt O60674); experiment: Biochemical JAK2 kinase assay (LanthaScreen); details: for Ki: read-out: JAK 2 (pKi) (converted)
T2 construct: GST; purchased Life Technologies
Outline: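 pKi values derive from pIC50 via Cheng-Prusoff, with IC50 from a 4-parameter fit of percent-inhibition TR-FRET data using Tb-anti-pSTAT1 (pTyr701) detection. Compound, GST-JAK2 and GFP-STAT1 substrate were pre-incubated 1 h, then ATP started a 1 h ambient reaction (HEPES pH 7.5, 10 mM MgCl2, 1% DMSO).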

[3] = target: T3, Tyk2 (Homo sapiens, UniProt P29597); experiment: Biochemical Tyk2 kinase assay (LanthaScreen); details: for Ki: read-out: Tyk 2 (pKi) (converted)
T3 construct: GST; purchased Life Technologies
Outline: as §1

[4] = test system: IL-2 stimulated pSTAT5 in Tall-1 T cells; experiment: Cellular JAK3 potency assay: inhibition of IL-2 stimulated pSTAT5 in Tall-1 T cells; type: cell-based, human; details: for IC50: Homo sapiens, read-out: Tall-1 (pIC50) (converted)
Outline: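 Tall-1 human T cells were preincubated with compound for 1 h at 37° C, then stimulated with IL-2 (300 ng/ml final) for 30 min. STAT5 phosphorylation in lysates was read by AlphaLisa bead emission, and IC50 from inhibition curves is given as pIC50 (mean±SD).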

[5] = target: T4, JAK3 (Homo sapiens, UniProt P52333); experiment: Biochemical JAK3 kinase assay (LanthaScreen); set-up: GST; purchased Life Technologies; details: for Ki: read-out: JAK 3 (pKi) (converted)
T4 sequence (P52333 1-1124): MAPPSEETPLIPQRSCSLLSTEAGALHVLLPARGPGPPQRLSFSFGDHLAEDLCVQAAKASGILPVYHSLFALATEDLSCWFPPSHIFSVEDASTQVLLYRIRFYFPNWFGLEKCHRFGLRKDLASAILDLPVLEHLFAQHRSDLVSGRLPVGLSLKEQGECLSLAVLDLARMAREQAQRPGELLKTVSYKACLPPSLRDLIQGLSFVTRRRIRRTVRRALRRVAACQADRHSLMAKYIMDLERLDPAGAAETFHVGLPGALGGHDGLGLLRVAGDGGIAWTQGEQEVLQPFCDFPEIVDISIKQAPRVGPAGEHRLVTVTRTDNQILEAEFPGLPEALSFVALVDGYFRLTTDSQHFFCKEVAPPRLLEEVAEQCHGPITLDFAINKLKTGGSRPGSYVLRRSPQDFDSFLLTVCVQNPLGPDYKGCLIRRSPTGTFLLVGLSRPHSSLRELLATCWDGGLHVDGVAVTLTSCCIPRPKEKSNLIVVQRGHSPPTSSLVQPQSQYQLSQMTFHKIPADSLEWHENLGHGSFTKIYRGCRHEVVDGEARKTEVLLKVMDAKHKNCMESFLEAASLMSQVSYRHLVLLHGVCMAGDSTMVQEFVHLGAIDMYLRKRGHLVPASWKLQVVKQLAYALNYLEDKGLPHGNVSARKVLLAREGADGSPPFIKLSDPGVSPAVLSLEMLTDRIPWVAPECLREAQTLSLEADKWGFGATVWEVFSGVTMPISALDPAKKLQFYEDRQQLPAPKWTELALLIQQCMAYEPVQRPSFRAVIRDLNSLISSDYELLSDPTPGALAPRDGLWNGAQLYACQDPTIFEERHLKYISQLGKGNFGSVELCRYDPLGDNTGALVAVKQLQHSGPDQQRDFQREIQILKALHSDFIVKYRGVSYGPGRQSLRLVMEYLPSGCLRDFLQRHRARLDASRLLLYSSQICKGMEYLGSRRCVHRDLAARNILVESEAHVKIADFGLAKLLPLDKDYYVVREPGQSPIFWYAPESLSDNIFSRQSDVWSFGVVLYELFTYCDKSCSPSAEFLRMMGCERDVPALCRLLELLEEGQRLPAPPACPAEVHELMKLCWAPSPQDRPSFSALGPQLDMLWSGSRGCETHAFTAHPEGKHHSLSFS
Outline: as §1

[6] = IL-2 stimulated pSTAT5, Tall-1 T cells
[7] = selectivity JAK3 over JAK1, difference of pKi
[8] = TALL-1, IL-2 stimulated pSTAT5 in Tall-1 T cells
[9] = selectivity: difference of pKi JAK3 and pKi JAK1
[10] = IL-2 stimulated pSTAT5 in Tall-1 T cells

T2 sequence (O60674 whole entry): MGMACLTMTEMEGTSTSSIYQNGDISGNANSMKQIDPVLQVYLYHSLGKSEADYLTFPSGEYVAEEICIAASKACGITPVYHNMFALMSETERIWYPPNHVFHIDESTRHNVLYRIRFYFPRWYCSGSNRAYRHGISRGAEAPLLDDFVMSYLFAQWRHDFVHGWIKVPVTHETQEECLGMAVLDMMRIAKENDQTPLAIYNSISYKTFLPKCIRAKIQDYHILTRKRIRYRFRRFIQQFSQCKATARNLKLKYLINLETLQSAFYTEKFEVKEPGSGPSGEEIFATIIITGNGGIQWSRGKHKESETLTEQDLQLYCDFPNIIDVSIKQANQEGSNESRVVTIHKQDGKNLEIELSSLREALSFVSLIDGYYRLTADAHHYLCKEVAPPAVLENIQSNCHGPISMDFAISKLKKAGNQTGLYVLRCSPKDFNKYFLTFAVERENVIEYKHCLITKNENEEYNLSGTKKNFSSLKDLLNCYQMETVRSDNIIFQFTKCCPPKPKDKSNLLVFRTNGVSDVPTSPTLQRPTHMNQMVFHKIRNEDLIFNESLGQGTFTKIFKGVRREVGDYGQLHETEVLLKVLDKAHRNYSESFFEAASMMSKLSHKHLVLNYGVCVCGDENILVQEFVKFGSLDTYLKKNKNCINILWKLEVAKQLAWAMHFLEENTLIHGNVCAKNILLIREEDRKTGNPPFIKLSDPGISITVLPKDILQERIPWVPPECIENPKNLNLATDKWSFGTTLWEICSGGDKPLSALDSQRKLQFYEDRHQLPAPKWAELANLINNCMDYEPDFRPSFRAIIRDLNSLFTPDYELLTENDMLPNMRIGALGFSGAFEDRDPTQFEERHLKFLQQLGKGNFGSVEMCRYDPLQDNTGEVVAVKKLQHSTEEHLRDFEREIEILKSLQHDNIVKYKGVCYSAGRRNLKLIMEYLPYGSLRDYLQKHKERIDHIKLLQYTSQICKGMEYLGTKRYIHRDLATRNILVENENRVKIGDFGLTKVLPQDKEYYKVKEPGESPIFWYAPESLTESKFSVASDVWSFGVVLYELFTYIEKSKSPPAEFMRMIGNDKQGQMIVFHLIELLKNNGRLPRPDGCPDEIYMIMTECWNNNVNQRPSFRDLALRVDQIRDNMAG
T3 sequence (P29597 whole entry): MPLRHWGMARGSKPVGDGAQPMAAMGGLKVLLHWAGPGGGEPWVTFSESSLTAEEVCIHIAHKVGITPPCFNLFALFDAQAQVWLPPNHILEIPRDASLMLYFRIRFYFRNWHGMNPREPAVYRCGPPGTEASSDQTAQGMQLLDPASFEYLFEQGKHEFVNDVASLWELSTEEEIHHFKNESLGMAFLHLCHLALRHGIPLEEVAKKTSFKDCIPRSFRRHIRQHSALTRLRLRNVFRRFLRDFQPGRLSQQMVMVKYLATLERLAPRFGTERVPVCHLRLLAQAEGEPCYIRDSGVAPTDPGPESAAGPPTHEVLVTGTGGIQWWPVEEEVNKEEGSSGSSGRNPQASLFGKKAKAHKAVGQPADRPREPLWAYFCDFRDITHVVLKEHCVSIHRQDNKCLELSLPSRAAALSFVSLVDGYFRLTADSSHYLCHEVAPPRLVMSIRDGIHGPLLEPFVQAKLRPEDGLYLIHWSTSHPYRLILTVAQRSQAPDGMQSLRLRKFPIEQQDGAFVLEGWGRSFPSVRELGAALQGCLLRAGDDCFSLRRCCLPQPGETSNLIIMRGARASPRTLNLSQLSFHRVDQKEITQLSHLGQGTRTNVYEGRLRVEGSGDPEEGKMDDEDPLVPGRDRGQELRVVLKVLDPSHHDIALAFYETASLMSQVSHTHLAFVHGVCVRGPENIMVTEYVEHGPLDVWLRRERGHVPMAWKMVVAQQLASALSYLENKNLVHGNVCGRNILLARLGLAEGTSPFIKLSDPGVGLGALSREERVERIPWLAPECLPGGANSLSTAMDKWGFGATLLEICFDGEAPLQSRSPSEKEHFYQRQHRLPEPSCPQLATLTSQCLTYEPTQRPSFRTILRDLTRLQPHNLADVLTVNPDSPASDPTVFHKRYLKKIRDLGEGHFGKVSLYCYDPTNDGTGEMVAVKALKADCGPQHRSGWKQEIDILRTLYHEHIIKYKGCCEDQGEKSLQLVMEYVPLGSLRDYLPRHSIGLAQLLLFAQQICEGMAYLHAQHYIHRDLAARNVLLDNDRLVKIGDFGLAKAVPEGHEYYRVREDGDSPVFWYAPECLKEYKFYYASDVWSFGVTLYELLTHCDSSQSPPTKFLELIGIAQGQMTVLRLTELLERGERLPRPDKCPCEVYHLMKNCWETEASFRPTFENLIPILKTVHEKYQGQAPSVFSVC
T1 sequence (P23458 whole entry): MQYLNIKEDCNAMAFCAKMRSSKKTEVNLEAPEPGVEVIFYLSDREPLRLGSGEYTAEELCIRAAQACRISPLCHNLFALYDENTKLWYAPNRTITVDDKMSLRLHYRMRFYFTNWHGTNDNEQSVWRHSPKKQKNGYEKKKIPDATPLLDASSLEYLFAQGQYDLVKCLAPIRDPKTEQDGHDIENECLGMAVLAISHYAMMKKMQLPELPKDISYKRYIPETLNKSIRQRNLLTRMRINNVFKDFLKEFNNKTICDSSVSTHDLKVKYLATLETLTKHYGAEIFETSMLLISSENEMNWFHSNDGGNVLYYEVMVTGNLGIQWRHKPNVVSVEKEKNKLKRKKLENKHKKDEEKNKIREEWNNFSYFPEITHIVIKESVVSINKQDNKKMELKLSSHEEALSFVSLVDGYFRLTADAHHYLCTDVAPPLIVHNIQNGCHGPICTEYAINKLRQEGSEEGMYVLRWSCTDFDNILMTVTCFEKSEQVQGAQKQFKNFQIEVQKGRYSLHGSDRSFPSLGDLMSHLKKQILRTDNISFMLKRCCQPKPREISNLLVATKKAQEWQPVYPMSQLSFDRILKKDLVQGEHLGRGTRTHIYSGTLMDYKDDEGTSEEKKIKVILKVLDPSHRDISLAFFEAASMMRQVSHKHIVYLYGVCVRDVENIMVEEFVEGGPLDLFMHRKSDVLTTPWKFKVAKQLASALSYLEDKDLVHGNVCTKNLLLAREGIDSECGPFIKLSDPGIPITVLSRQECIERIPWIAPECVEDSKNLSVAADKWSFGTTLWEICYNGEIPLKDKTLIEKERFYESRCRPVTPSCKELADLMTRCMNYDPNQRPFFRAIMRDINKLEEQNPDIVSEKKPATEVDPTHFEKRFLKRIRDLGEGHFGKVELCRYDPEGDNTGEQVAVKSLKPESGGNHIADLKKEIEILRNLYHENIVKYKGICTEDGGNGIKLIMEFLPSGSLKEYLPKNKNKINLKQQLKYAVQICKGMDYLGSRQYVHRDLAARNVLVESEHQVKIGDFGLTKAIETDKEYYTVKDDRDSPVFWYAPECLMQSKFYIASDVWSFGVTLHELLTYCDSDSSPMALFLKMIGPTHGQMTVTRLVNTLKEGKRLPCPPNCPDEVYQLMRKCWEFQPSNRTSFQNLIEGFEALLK

Structure (SMILES)	JAK 1 (pKi) [1]	JAK 2 (pKi) [2]	Tyk 2 (pKi) [3]	Tall-1 (pIC50) [4, 6]	JAK 3 (pKi) [5]	JAK3 (pKi)-JAK1 (pKi) [5, 7]	Ki [1]	Ki [2]	Ki [3]	IC50 [4, 8]	Ki [5]	JAK3 (pKi)-JAK1 (pKi) [5, 9]	Tall-1 (pIC50) [4, 10]	IC50 ([4]; TALL-1, IL-2 stimulated pSTAT5, Tall-1 T cells)
C=CC(=O)N1CCC(C)(Nc2nc(-c3ccc(O)cc3)cc3[nH]ncc23)CC1 [Compound 7-13]	E (a pKi value of 7 or below (Ki of 100 nM or above))	D (a pKi value between 7 and 8 (Ki between 100 nM and 10 nM))	E (a pKi value of 7 or below (Ki of 100 nM or above))	A (a pIC50 value≥7.5 (IC50≤32 nM))	A (a pKi value≥10 (Ki≤0.1 nM))	A (a value of 3 or above)								
C=CC(=O)N1CC(F)(COc2nc(-c3ccc(O)c(Cl)c3)cc3[nH]ncc23)C1 [Compound 3-47]							> 100 nM	10 to 100 nM	> 100 nM	< 31.6 nM	0.1 to 1 nM	B (a value of 2.3 to 3)		
C=CC(=O)N1CC(C#N)(COc2cc(-c3ccc(O)c(F)c3)cc3[nH]ncc23)C1 [Compound 3-23]	E (a pKi value of 7 or below (Ki of 100 nM or above))	D (a pKi value between 7 and 8 (Ki between 100 nM and 10 nM))	E (a pKi value of 7 or below (Ki of 100 nM or above))		A (a pKi value≥10 (Ki≤0.1 nM))							A (a value of 3 or above)	B (a pIC50 value between 6.7 (included) and 7.5 (IC50 between 200 nM and 32 nM))	
C=CC(=O)N1CC[C@H](COc2nc(-c3ccc(O)c(F)c3)nc3[nH]ncc23)C1 [Compound 2-15]	E (a pKi value of 7 or below (Ki of 100 nM or above))	E (a pKi value of 7 or below (Ki of 100 nM or above))	E (a pKi value of 7 or below (Ki of 100 nM or above))		A (a pKi value≥10 (Ki≤0.1 nM))							A (a value of 3 or above)	B (a pIC50 value between 6.7 (included) and 7.5 (IC50 between 200 nM and 32 nM))	
C=CC(=O)N1CC(CSc2cc(-c3ccc(O)c(Cl)c3)cc3[nH]ncc23)C1 [Compound 13-8]	E (a pKi value of 7 or below (Ki of 100 nM or above))	E (a pKi value of 7 or below (Ki of 100 nM or above))	E (a pKi value of 7 or below (Ki of 100 nM or above))	A (a pIC50 value≥7.5 (IC50≤32 nM))	B (a pKi value between 9 and 10 (Ki between 1 nM and 0.1 nM))	A (a value of 3 or above)								
C=CC(=O)N1CCSC(C(=O)Nc2cc(-c3ccc(O)cc3)cc3[nH]ncc23)C1 (stereo not drawn) [Compound 12-42]						B (a value of 2.3 to 3)	> 100 nM	10 to 100 nM	> 100 nM		0.1 to 1 nM			31.6 to 200 nM
C=CC(=O)N1CCCC(Oc2cc(-c3ccc(O)c(F)c3)cc3[nH]ncc23)C1 (stereo not drawn) [Compound 8-5]	E (a pKi value of 7 or below (Ki of 100 nM or above))	D (a pKi value between 7 and 8 (Ki between 100 nM and 10 nM))	E (a pKi value of 7 or below (Ki of 100 nM or above))	A (a pIC50 value≥7.5 (IC50≤32 nM))	A (a pKi value≥10 (Ki≤0.1 nM))	A (a value of 3 or above)								
C=CC(=O)N1CCO[C@@H](C(=O)Nc2cc(-c3ccc(O)cc3)nc3[nH]ncc23)C1 [Compound 13-19]	E (a pKi value of 7 or below (Ki of 100 nM or above))	E (a pKi value of 7 or below (Ki of 100 nM or above))	E (a pKi value of 7 or below (Ki of 100 nM or above))	B (a pIC50 value between 6.7 (included) and 7.5 (IC50 between 200 nM and 32 nM))	A (a pKi value≥10 (Ki≤0.1 nM))	A (a value of 3 or above)								
C=CC(=O)N1CC(Oc2cc(-c3ccc(O)c(Cl)c3)cc3[nH]ncc23)(C(F)F)C1 [Compound 5-21]	E (a pKi value of 7 or below (Ki of 100 nM or above))	E (a pKi value of 7 or below (Ki of 100 nM or above))	E (a pKi value of 7 or below (Ki of 100 nM or above))	A (a pIC50 value≥7.5 (IC50≤32 nM))	B (a pKi value between 9 and 10 (Ki between 1 nM and 0.1 nM))	A (a value of 3 or above)								
C=CC(=O)N1CC(C#N)(COc2nc(-c3ccc(O)c(F)c3)cc3[nH]ncc23)C1 [Compound 3-108]	E (a pKi value of 7 or below (Ki of 100 nM or above))	D (a pKi value between 7 and 8 (Ki between 100 nM and 10 nM))	E (a pKi value of 7 or below (Ki of 100 nM or above))		A (a pKi value≥10 (Ki≤0.1 nM))							A (a value of 3 or above)	A (a pIC50 value≥7.5 (IC50≤32 nM))	
C=CC(=O)N1CC[C@H](Oc2cc(-c3ccc(O)c(F)c3)nc3[nH]nc(C)c23)C1 [Compound 1-33]							> 100 nM	> 100 nM	> 100 nM	31.6 to 200 nM	0.1 to 1 nM	A (a value of 3 or above)		
C=CC(=O)N1CC(CN(C)c2cc(-c3ccc(O)c(Cl)c3)cc3[nH]ncc23)C1 [Compound 4-5]	E (a pKi value of 7 or below (Ki of 100 nM or above))	E (a pKi value of 7 or below (Ki of 100 nM or above))	E (a pKi value of 7 or below (Ki of 100 nM or above))		B (a pKi value between 9 and 10 (Ki between 1 nM and 0.1 nM))							A (a value of 3 or above)	A (a pIC50 value≥7.5 (IC50≤32 nM))	
C=CC(=O)N1CC(C)(COc2nc(-c3ccc(O)c(Cl)c3)cc3[nH]ncc23)C1 [Compound 3-97]	E (a pKi value of 7 or below (Ki of 100 nM or above))	E (a pKi value of 7 or below (Ki of 100 nM or above))	E (a pKi value of 7 or below (Ki of 100 nM or above))		B (a pKi value between 9 and 10 (Ki between 1 nM and 0.1 nM))							B (a value of 2.3 to 3)	A (a pIC50 value≥7.5 (IC50≤32 nM))	
CN(C)CC=CC(=O)N1CCCC(Oc2cc(-c3ccc(O)c(F)c3)cc3[nH]ncc23)C1 (stereo not drawn) [Compound 8-4]	E (a pKi value of 7 or below (Ki of 100 nM or above))	D (a pKi value between 7 and 8 (Ki between 100 nM and 10 nM))	E (a pKi value of 7 or below (Ki of 100 nM or above))	B (a pIC50 value between 6.7 (included) and 7.5 (IC50 between 200 nM and 32 nM))	B (a pKi value between 9 and 10 (Ki between 1 nM and 0.1 nM))	B (a value of 2.3 to 3)								
CN(C)C/C=C/C(=O)N1CC(F)(COc2nc(-c3ccc(O)c(F)c3)cc3[nH]ncc23)C1 [Compound 3-48]	D (a pKi value between 7 and 8 (Ki between 100 nM and 10 nM))	D (a pKi value between 7 and 8 (Ki between 100 nM and 10 nM))	E (a pKi value of 7 or below (Ki of 100 nM or above))		A (a pKi value≥10 (Ki≤0.1 nM))							A (a value of 3 or above)	A (a pIC50 value≥7.5 (IC50≤32 nM))	
